This test concerns the target EGFR L858R/T790M/C797S mutant enzyme (Homo sapiens (Human), UniProt P00533, C797S/L858R/T790M). In words: EGFR mutant enzyme inhibition, HTRF system (Cisbio). The conditions noted are these: ATP 1 mM, 37° C. for 2 hours. The test is classed as biochemical. As to the method:
In order to evaluate the inhibitory activity of the compound represented by formula 1 according to the present invention against EGFR mutation, the following experiment was performed.
The activity of the compound of the present invention against EGFR mutant enzyme was measured using the HTRF system of Cisbio Co. As an EGFR L858R/T790M/C797S mutant enzyme, a protein provided by SignalChem was purchased and used as an enzyme source.
The composition of the assay buffer used for the activity measurement was as follows: 50 mM Tris-HCl (pH 7.5), 100 mM NaCl, 7.5 mM MgCl2, 3 mM KCl, 0.01% Tween 20, 0.1% BSA, and 1 mM DTT. Herein, an enzyme reaction was performed using a peptide substrate labeled with ATP at the concentration of 1 mM and biotin at the concentration of 0.5 μM. The analysis of the EGFR activity inhibitory effect of the compound was performed according to the following analytical reaction recipe.
Component 1: 4 μl of EGFR mutant enzyme
Component 2: 2 μl of compound solution
Component 3: 4 μl of ATP and biotin-labeled peptide mixture
The enzyme reaction was initiated by mixing the component 1 and the component 2 first and then adding the component 3 thereto. After reacting the mixture at 37° C. for 2 hours, 10 μl of a measurement solution consisting of streptavidin-XL665 and europium-labeled anti-phosphotyrosine antibody provided by Cisbio was added to the enzyme reaction solution, followed by reaction at room temperature for 1 hour. Finally, the ratio of the fluorescence values at 615 nm and 665 nm was calculated using Envision equipment of Perkin-Elmer to quantitatively measure the enzyme activity and confirm the inhibitory ability of the compound. The values measured at 7 concentrations of the compound were analyzed using Prism program (version 5.01, Graphpad Software, Inc.), and the IC50 value, an index of the inhibitory ability of the compound, was calculated.
EGFR L858R/T790M/C797S mutant enzyme, sequence (P00533 25-1210 T790M/C797S/L858R): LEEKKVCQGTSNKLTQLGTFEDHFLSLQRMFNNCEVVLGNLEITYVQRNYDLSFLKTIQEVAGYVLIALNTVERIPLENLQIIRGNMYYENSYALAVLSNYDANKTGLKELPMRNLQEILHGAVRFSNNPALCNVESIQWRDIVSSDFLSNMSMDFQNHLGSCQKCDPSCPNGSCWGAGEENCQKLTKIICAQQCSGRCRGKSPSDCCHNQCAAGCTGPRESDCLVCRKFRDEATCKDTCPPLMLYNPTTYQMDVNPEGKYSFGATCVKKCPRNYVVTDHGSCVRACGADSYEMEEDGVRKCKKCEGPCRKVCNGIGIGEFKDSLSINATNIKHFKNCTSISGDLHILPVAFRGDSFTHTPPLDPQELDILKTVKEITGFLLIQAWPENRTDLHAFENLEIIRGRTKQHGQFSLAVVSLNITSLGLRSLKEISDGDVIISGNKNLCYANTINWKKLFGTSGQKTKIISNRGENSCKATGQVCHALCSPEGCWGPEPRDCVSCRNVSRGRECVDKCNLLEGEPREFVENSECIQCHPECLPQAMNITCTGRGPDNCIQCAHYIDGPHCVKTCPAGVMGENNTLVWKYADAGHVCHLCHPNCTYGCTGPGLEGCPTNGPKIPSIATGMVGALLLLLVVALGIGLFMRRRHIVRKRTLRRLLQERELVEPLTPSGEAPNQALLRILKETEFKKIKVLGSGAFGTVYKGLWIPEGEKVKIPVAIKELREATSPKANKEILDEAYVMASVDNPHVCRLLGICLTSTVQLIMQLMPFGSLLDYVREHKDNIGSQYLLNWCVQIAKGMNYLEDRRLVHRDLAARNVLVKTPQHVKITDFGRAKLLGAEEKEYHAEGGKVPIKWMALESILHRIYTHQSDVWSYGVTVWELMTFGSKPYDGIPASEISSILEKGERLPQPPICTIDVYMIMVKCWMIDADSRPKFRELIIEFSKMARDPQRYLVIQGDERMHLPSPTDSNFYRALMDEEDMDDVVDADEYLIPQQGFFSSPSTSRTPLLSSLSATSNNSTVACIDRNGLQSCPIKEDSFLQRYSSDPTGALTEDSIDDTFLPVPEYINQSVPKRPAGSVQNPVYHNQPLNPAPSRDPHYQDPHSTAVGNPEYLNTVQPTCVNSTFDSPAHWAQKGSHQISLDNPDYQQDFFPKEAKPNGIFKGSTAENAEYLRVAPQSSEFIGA
One may read the IC50 as the midpoint of a concentration-inhibition curve. The compound `O=C1c2ccccc2CN1C(c1nc2ccccc2[nH]1)c1ccccc1O` (stereo not drawn) [Example 1, 2-((1H-benzo[d]imidazole-2-yl)(2-hydroxyphenyl)methyl)isoindolin-1-one] displayed a half-inhibitory concentration (IC50) of 1000 nM. Then `O=C1c2ccccc2CN1C(c1nc2ccc(F)cc2[nH]1)c1ccccc1O` (stereo not drawn) [Example 2, 2-((6-fluoro-1H-benzo[d]imidazole-2-yl)(2-hydroxyphenyl)methyl)isoindolin-1-one], with 2200 nM; and `O=C1c2ccccc2CN1C(c1nc2cccnc2[nH]1)c1ccccc1O` (stereo not drawn) [Example 3, 2-((2-hydroxyphenyl)(3H-imidazo[4,5-b]pyridine-2-yl)methyl)isoindolin-1-one], with 2300 nM. Then `O=C1c2ccccc2CN1C(c1nc2ccc(Cl)cc2[nH]1)c1ccccc1O` (stereo not drawn) [Example 4, 2-((6-chloro-1H-benzo[d]imidazole-2-yl)(2-hydroxyphenyl)methyl)isoindolin-1-one], with 4400 nM. Turning to `O=C1c2ccccc2CN1C(c1nc2cc(Cl)c(Cl)cc2[nH]1)c1ccccc1O` (stereo not drawn) [Example 5, 2-((5,6-dichloro-1H-benzo[d]imidazole-2-yl)(2-hydroxyphenyl)methyl)isoindolin-1-one], 7000 nM corresponded to half-maximal inhibition (IC50). Turning to `O=C1c2ccccc2CN1C(c1nc2ccc(Cl)nc2[nH]1)c1ccccc1O` (stereo not drawn) [Example 6, 2-((5-chloro-3H-imidazo[4,5-b]pyridine-2-yl)(2-hydroxyphenyl)methyl)isoindolin-1-one], the IC50 was > 10000 nM. For the compound `O=C1c2ccccc2CN1C(c1nc2ccccc2[nH]1)c1cc(F)ccc1O` (stereo not drawn) [Example 7, 2-((1H-benzo[d]imidazole-2-yl)(5-fluoro-2-hydroxyphenyl)methyl)isoindolin-1-one], the IC50 is 700 nM. With `O=C1c2ccccc2CN1C(c1nc2ccccc2[nH]1)c1cc(Cl)ccc1O` (stereo not drawn) [Example 8, 2-((1H-benzo[d]imidazole-2-yl)(5-chloro-2-hydroxyphenyl)methyl)isoindolin-1-one] the figure was 170 nM; with `O=C1c2cc(-c3ccc(N4CCNCC4)cc3)ccc2CN1C(c1nc2ccccc2[nH]1)c1cc(F)ccc1O` (stereo not drawn) [Example 10, 2-((1H-benzo[d]imidazole-2-yl)(5-fluoro-2-hydroxyphenyl)methyl)-6-(4-(piperazine-1-yl)phenyl)isoindolin-1-one], 99 nM; with `O=C1c2cc(-c3ccc(N4CCNCC4)cc3)ccc2CN1C(c1nc2ccccc2[nH]1)c1cc(Cl)ccc1O` (stereo not drawn) [Example 11, 2-((1H-benzo[d]imidazole-2-yl)(5-chloro-2-hydroxyphenyl)methyl)-6-(4-(piperazine-1-yl)phenyl)isoindolin-1-one], 150 nM. On to `Nc1ccc(-c2ccc3c(c2)C(=O)N(C(c2nc4ccccc4[nH]2)c2ccccc2O)C3)cc1` (stereo not drawn) [Example 12, 2-((1H-benzo[d]imidazole-2-yl)(2-hydroxyphenyl)methyl)-6-(4-aminophenyl)isoindolin-1-one], for which the IC50 came out at 500 nM.

As to `Nc1ccc(-c2ccc3c(c2)C(=O)N(C(c2nc4ccccc4[nH]2)c2cc(Cl)ccc2O)C3)cc1` (stereo not drawn) [Example 14, 2-((1H-benzo[d]imidazole-2-yl)(5-chloro-2-hydroxyphenyl)methyl)-6-(4-aminophenyl)isoindolin-1-one], the midpoint of inhibition, the IC50, lay at 1300 nM. `O=C1c2cc(C3=CCNCC3)ccc2CN1C(c1nc2ccccc2[nH]1)c1ccccc1O` (stereo not drawn) [Example 15, 2-((1H-benzo[d]imidazole-2-yl)(2-hydroxyphenyl)methyl)-6-(1,2,3,6-tetrahydropyridine-4-yl)isoindolin-1-one] displayed an IC50 of 8800 nM.

`O=C1c2cc(C3=CCNCC3)ccc2CN1C(c1nc2ccccc2[nH]1)c1cc(F)ccc1O` (stereo not drawn) [Example 16] registered an IC50 of 2900 nM.

Turning to `O=C1c2cc(C3=CCNCC3)ccc2CN1C(c1nc2ccccc2[nH]1)c1cc(Cl)ccc1O` (stereo not drawn) [Example 17], the half-inhibitory concentration (IC50) came out at 1100 nM.

Source of the values: US11976059B2 (KOREA RESEARCH INSTITUTE OF CHEMICAL TECHNOLOGY, priority 2018, dated 2024).
